Data as given in PubChem BioAssay (NCI).
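Exposure lasted 48 hours, with cells grown in 96-well plates and compounds tested at five concentrations. GI50 is the concentration that inhibits growth by half. At the TGI there is no net growth.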

Experiments:
Assay in all cases: inhibition of tumour cell growth, NCI panel, 48 h
[1] = test system: A498 renal
[2] = test system: RPMI-8226 leukemia
[3] = test system: NCI-H522 lung
[4] = test system: NCI-H226 lung
[5] = test system: RXF 393 renal
[6] = test system: M14 melanoma
[7] = test system: HL-60(TB) leukemia
[8] = test system: EKVX NSCLC
[9] = test system: SK-MEL-2 melanoma
[10] = test system: SNB-19 CNS
[11] = test system: MDA-MB-468 breast
[12] = test system: SNB-75 CNS
[13] = test system: UACC-62 melanoma
[14] = test system: NCI-H460 lung
[15] = test system: OVCAR-4 ovarian
[16] = test system: SF-295 CNS
[17] = test system: A549 NSCLC
[18] = test system: PC-3 prostate
[19] = test system: OVCAR-8 ovarian
[20] = test system: UACC-257 melanoma
[21] = test system: COLO 205 colon
[22] = test system: SK-MEL-5 melanoma
[23] = test system: HCT-116 colon
[24] = test system: HOP-92 NSCLC
[25] = test system: SW-620 colon
[26] = test system: KM12 colon
[27] = test system: IGROV1 ovarian
[28] = test system: NCI/ADR-RES ovarian
[29] = test system: MALME-3M melanoma
[30] = test system: T-47D breast
[31] = test system: OVCAR-5 ovarian
[32] = test system: 786-0 renal
[33] = test system: MCF7 breast
[34] = test system: SN12C renal
[35] = test system: ACHN renal
[36] = test system: TK-10 renal
[37] = test system: HS 578T breast
[38] = test system: K-562 leukemia
[39] = test system: CAKI-1 renal
[40] = test system: SF-268 CNS
[41] = test system: DU-145 prostate
[42] = test system: HCC-2998 colon
[43] = test system: MOLT-4 leukemia
[44] = test system: SF-539 CNS
[45] = test system: OVCAR-3 ovarian
[46] = test system: MDA-MB-435
[47] = test system: HOP-62 NSCLC
[48] = test system: CCRF-CEM leukemia
[49] = test system: U251 CNS
[50] = test system: SK-MEL-28 melanoma
[51] = test system: SK-OV-3 ovarian
[52] = test system: HCT-15 colon
[53] = test system: NCI-H23 lung
[54] = test system: BT-549 breast
[55] = test system: HT29 colon
[56] = test system: LOX IMVI melanoma
[57] = test system: MDA-MB-231 breast
[58] = test system: SR leukemia
[59] = test system: UO-31 renal

SMILES: COc1ccc2[nH]c(=O)c(CSc3nccc(-c4ccc(Cl)cc4)n3)cc2c1
- GI50 [1]: 23.8 µM
- TGI [1]: 63 µM
- GI50 [2]: 11.7 µM
- TGI [2]: 39.5 µM
- GI50 [3]: 14.8 µM
- TGI [3]: 28.5 µM
- GI50 [4]: 18.5 µM
- TGI [4]: 59.9 µM
- GI50 [5]: 14.4 µM
- TGI [5]: 28.5 µM
- GI50 [6]: 17.6 µM
- TGI [6]: 34.2 µM
- GI50 [7]: > 100 µM
- TGI [7]: > 100 µM
- GI50 [8]: 31.2 µM
- TGI [8]: > 100 µM
- GI50 [9]: 18.1 µM
- TGI [9]: 44 µM
- GI50 [10]: 18 µM
- TGI [10]: 43.5 µM
- GI50 [11]: 12.5 µM
- TGI [11]: 26.1 µM
- GI50 [12]: 23.7 µM
- TGI [12]: 65.1 µM
- GI50 [13]: 15.3 µM
- TGI [13]: 78.3 µM
- GI50 [14]: 17.2 µM
- TGI [14]: 35.4 µM
- GI50 [15]: 18.5 µM
- TGI [15]: 64.9 µM
- GI50 [16]: 14.4 µM
- TGI [16]: 28.4 µM
- GI50 [17]: 14.6 µM
- TGI [17]: 30.8 µM
- GI50 [18]: 19 µM
- TGI [18]: > 100 µM
- GI50 [19]: 16.8 µM
- TGI [19]: 32.4 µM
- GI50 [20]: 22.2 µM
- TGI [20]: 55.6 µM
- GI50 [21]: 23.9 µM
- TGI [21]: 61.7 µM
- GI50 [22]: 13.6 µM
- TGI [22]: 31.3 µM
- GI50 [23]: 13 µM
- TGI [23]: 26.8 µM
- GI50 [24]: 6.22 µM
- TGI [24]: 32.5 µM
- GI50 [25]: 20.6 µM
- TGI [25]: 45.9 µM
- GI50 [26]: 29.2 µM
- TGI [26]: 90.9 µM
- GI50 [27]: 25.5 µM
- TGI [27]: 89.7 µM
- GI50 [28]: 15.4 µM
- TGI [28]: 38.7 µM
- GI50 [29]: 18.6 µM
- TGI [29]: 38.6 µM
- GI50 [30]: 13.7 µM
- TGI [30]: 31 µM
- GI50 [31]: 24.7 µM
- TGI [31]: 93 µM
- GI50 [32]: 13.8 µM
- TGI [32]: 26.7 µM
- GI50 [33]: 17 µM
- TGI [33]: 33.5 µM
- GI50 [34]: 15.2 µM
- TGI [34]: 32.9 µM
- GI50 [35]: 16.8 µM
- TGI [35]: 40.1 µM
- GI50 [36]: 16.6 µM
- TGI [36]: 36.1 µM
- GI50 [37]: 26 µM
- TGI [37]: > 100 µM
- GI50 [38]: 27.8 µM
- TGI [38]: > 100 µM
- GI50 [39]: 15.8 µM
- TGI [39]: 37.7 µM
- GI50 [40]: 25.4 µM
- TGI [40]: > 100 µM
- GI50 [41]: 26 µM
- TGI [41]: > 100 µM
- GI50 [42]: 22.5 µM
- TGI [42]: 56.3 µM
- GI50 [43]: 12 µM
- TGI [43]: > 100 µM
- GI50 [44]: 14.9 µM
- TGI [44]: 29.7 µM
- GI50 [45]: 18.6 µM
- TGI [45]: 39.1 µM
- GI50 [46]: 30 µM
- TGI [46]: > 100 µM
- GI50 [47]: 16.5 µM
- TGI [47]: 34.3 µM
- GI50 [48]: 77.1 µM
- TGI [48]: > 100 µM
- GI50 [49]: 15.2 µM
- TGI [49]: 28.8 µM
- GI50 [50]: 20.6 µM
- TGI [50]: 51.6 µM
- GI50 [51]: 39.3 µM
- TGI [51]: > 100 µM
- GI50 [52]: 22 µM
- TGI [52]: 65.8 µM
- GI50 [53]: 18.9 µM
- TGI [53]: 42.5 µM
- GI50 [54]: 20 µM
- TGI [54]: > 100 µM
- GI50 [55]: 28.9 µM
- TGI [55]: > 100 µM
- GI50 [56]: 17.1 µM
- TGI [56]: 34.2 µM

SMILES: COc1ccc2[nH]c(O)c(N=Nc3nc(-c4ccc(Br)cc4)cs3)c2c1
- GI50 [1]: 2.38 µM
- TGI [1]: 6.5 µM
- GI50 [2]: 3.62 µM
- TGI [2]: > 100 µM
- GI50 [3]: 2.5 µM
- TGI [3]: 39 µM
- GI50 [4]: 4.44 µM
- TGI [4]: 19.5 µM
- GI50 [5]: 2.29 µM
- TGI [5]: 5.07 µM
- GI50 [6]: 2.81 µM
- TGI [6]: 10.3 µM
- GI50 [7]: 87.8 µM
- TGI [7]: > 100 µM
- GI50 [8]: 3.63 µM
- TGI [8]: 27.9 µM
- GI50 [9]: 2.6 µM
- TGI [9]: 8.11 µM
- GI50 [10]: 8.01 µM
- TGI [10]: 52.4 µM
- GI50 [11]: 2.17 µM
- TGI [11]: 5.81 µM
- GI50 [12]: 3 µM
- TGI [12]: 21.3 µM
- GI50 [57]: 5.35 µM
- TGI [57]: 20.7 µM
- GI50 [13]: 2.97 µM
- TGI [13]: > 100 µM
- GI50 [14]: 2.48 µM
- TGI [14]: 6.14 µM
- GI50 [15]: 1.73 µM
- TGI [15]: 3.23 µM
- GI50 [16]: 11.3 µM
- TGI [16]: 39.3 µM
- GI50 [17]: 3.07 µM
- TGI [17]: 12.9 µM
- GI50 [18]: 5.22 µM
- TGI [18]: 60.1 µM
- GI50 [19]: 3.07 µM
- TGI [19]: 9.52 µM
- GI50 [20]: 8.64 µM
- TGI [20]: > 100 µM
- GI50 [21]: 5.6 µM
- TGI [21]: > 100 µM
- GI50 [22]: 4.72 µM
- TGI [22]: 30.9 µM
- GI50 [23]: 2.35 µM
- TGI [23]: 5.72 µM
- GI50 [24]: 1.96 µM
- TGI [24]: 5.21 µM
- GI50 [25]: 3.06 µM
- TGI [25]: > 100 µM
- GI50 [26]: 6.23 µM
- TGI [26]: > 100 µM
- GI50 [27]: 5.41 µM
- TGI [27]: > 100 µM
- GI50 [28]: 2.1 µM
- TGI [28]: 4.58 µM
- GI50 [29]: 1.69 µM
- TGI [29]: 3.2 µM
- GI50 [31]: 5.77 µM
- TGI [31]: 33.8 µM
- GI50 [32]: 1.65 µM
- TGI [32]: 3.22 µM
- GI50 [33]: 2.98 µM
- TGI [33]: 79.8 µM
- GI50 [34]: 3.16 µM
- TGI [34]: 11.1 µM
- GI50 [58]: 4.73 µM
- TGI [58]: > 100 µM
- GI50 [35]: 3.18 µM
- TGI [35]: 10.1 µM
- GI50 [36]: 14.7 µM
- TGI [36]: 89.9 µM
- GI50 [37]: 7.34 µM
- TGI [37]: > 100 µM
- GI50 [38]: 4.35 µM
- TGI [38]: > 100 µM
- GI50 [39]: 5.1 µM
- TGI [39]: 32.7 µM
- GI50 [40]: 6.49 µM
- TGI [40]: 36.6 µM
- GI50 [41]: 4.54 µM
- TGI [41]: 32.6 µM
- GI50 [42]: 4.25 µM
- TGI [42]: > 100 µM
- GI50 [43]: 3.33 µM
- TGI [43]: > 100 µM
- GI50 [44]: 1.92 µM
- TGI [44]: 3.95 µM
- GI50 [45]: 2.91 µM
- TGI [45]: 10.4 µM
- GI50 [46]: 6.64 µM
- TGI [46]: > 100 µM
- GI50 [47]: 6.51 µM
- TGI [47]: 36 µM
- GI50 [48]: 6.56 µM
- TGI [48]: > 100 µM
- GI50 [49]: 2.96 µM
- TGI [49]: 9.25 µM
- GI50 [50]: 2.01 µM
- TGI [50]: 4.19 µM
- GI50 [51]: 6.16 µM
- TGI [51]: 50.3 µM
- GI50 [52]: 4.43 µM
- TGI [52]: 30.6 µM
- GI50 [53]: 3.51 µM
- TGI [53]: 14.2 µM
- GI50 [54]: 7.26 µM
- TGI [54]: 36.6 µM
- GI50 [55]: 7.18 µM
- TGI [55]: > 100 µM
- GI50 [56]: 3.77 µM
- TGI [56]: 12.5 µM
- GI50 [59]: 9.13 µM
- TGI [59]: 28.2 µM
